Laboratory results: US9833405B2, “Biodegradable microdepot delivery system for topical delivery” (Nano and Advanced Materials Institute Limited, priority 2014, dated 2017)
Where a SMILES comes first, the peptide text is derived from it. The star is where a group is joined. Palmitoyl = CCCCCCCCCCCCCCCC(=O)*

System: HaCaT cells
Assay: Cell viability assay (MTT) for in vitro skin irritation of active ingredients
Type: cell-based, human
Settings: for Cell viability(%): MTT
Procedure: HaCaT cells, a human keratinocyte cell line, are used as the in vitro model to test any irritation effect of the active ingredients used in the polymeric solution to form the microdepot delivery system of the present invention. The following is the procedures of an MTT assay for testing any skin irritation effect of the active ingredients used in the polymeric solution of the present invention: • a) 12 mM MTT stock solution is prepared by adding 1 mL of sterile PBS into one 5 mg vial of MTT (Component A) and mixed by sonication until the vial of MTT is dissolved in the PBS; • b) HaCaT cells at 5,000 cells per well are seed into a 96-well plate and incubated at 37° C. in 5% CO2 for 24 to 48 hours until the cells become adherent; • c) Culture medium in each well is removed and replaced with 100 μL of test compound (e.g., active ingredient used in the polymeric solution of the present invention); • d) 10 μL of the MTT stock solution prepared in step (a) is added to each well; a negative control containing 100 μL of culture medium and 10 μL of the MTT stock solution is also included for comparison; • e) Both test samples and negative control prepared in step (d) are incubated at 37° C. for 4 hours; • f) 25 μL of the solution is removed from each well after incubation in step (e) followed by adding 50 μL of DMSO to each well and mix thoroughly by pipette; • g) The mixture in step (f) is incubated at 37° C. for 10 minutes; • h) The mixture in each well after the incubation in step (g) is mixed again before measuring absorbance at 540 nm; • i) The mixture is subject to a spectrophotometer to measure the absorbance at 540 nm.
The cell viability of HaCaT cells with the treatment of the test compound is calculated based on the following formula:
[formula] where ^OD(1) is the absorbance of culture medium only; ^OD(2) is the absorbance of the culture medium with the cells; ^OD(3) is the absorbance of the culture medium with the test compound; and ^OD(4) is the absorbance of the culture medium with the cells and test compound.

## GHK-Cu
Test compound 0.2%
  Cell viability(%): 135.1%
Test compound 0.5%
  Cell viability(%): 139.6%
Test compound 1%
  Cell viability(%): 144.6%
Test compound 2%
  Cell viability(%): 132.7%
Test compound 5%
  Cell viability(%): 136.1%
Concentrations ranging from 0.2% to 5%
  cytotoxicity (viability higher than or equal to control): non-cytotoxic

## CCCCCCCCCCCCCCCC(=O)N[C@@H](CCCCN)C(=O)N[C@H](C(=O)N[C@H](C(=O)N[C@@H](CCCCN)C(=O)N[C@@H](CO)C(=O)O)[C@@H](C)O)[C@@H](C)O [Pal-KTTKS] (Palmitoyl-KTTKS-OH)
Test compound 3%
  Cell viability(%): 119%
Test compound 4%
  Cell viability(%): 135.1%
Test compound 5%
  Cell viability(%): 122.6%
Test compound 8%
  Cell viability(%): 141.9%
Test compound 10%
  Cell viability(%): 127.8%
Concentrations ranging from 3% to 10%
  cytotoxicity (viability higher than or equal to control): non-cytotoxic

## NC(=O)c1cccnc1 [Niacinamide, reference compound]
Test compound 2%
  Cell viability(%): 115%
Test compound 4%
  Cell viability(%): 91.34%
Test compound 6%
  Cell viability(%): 77.44%
Test compound 8%
  Cell viability(%): 84.08%
Test compound 10%
  Cell viability(%): 80.43%
At 2%
  cytotoxicity (viability higher than or equal to control): non-cytotoxic
